Reference: patent US5446065A, “Sulfonamides of phenylalkylamines or phenoxyalkylamines processes for their preparation and medicaments containing these compounds” (Boehringer Mannheim GmbH, priority 1990, dated 1995)

Legend:
[1] = system: pre-contracted isolated rat aortas; experiment: TX-antagonistic action: inhibition of contraction of the isolated rat aorta ring pre-contracted with U 46619; format: cell-based; conditions: aorta rings precontracted with 0.3 μmol/l U 46619, cumulative addition, 37° C.
Procedure: 1. TX-antagonistic action on the isolated rat sorts ring pre-contracted with U 46619
The isolated rat sorts freed from surrounding connective tissue is cut up into equally wide rings and superinfused in a 10 ml organ bath with Krebs-Hanseleit buffer at 37° C. After about 45 min., equilibration time, the sorts rings are precontracted with 0.3 μmol/l U 46619, a stable analogue of the prostaglandin endoperoxide PGH2 (Upjohn & Co., Kalamazoo, USA). U 46619 was characterised as selective thromboxane mimetic (Coleman et al., Brit. J. Pharmacol. 68, 127P, 1980). As soon as a stable plateau is reached (after about 15 min.), the test substance is added cumulatively directly into the organ bath to the aorta ring, beginning with 10 nmol/l, until either an end concentration of 100 μmol/l is reached or the contraction is completely antagonised. There is calculated the particular percentage inhibition of the contraction by the test substance. From the concentration-action curves is determined the IC50, i.e. the half maximum inhibiting concentration.

[2] = system: U 46619-caused lung embolism; experiment: Prevention of the U 46619-caused lung embolism (survival); format: in vivo, male NMRI mice; conditions: po, mouse, stomach probe, U 46619 injected 4 h later (800-1000 μg/kg, tail vein), read-out: survival rate of mouse 1 mg/kg after 4 h
Procedure: 2. Prevention of the U 46619-caused lung embolism
Male NMRI mice of about 25 g body weight are used. The test substance is suspended in 1% methyl cellulose solution and administered to the experimental animals by means of a stomach probe. The provocation test consists in that a dose lethal for the control animals (800-1000 μg/kg) of the thromboxane mimetic (U 46619 of the firm Upjohn) is rapidly injected into the tail vein. The period of the specific antagonistic action is tested in that the animals are pre-treated with 1 mg/kg of the various test substances and the injection of U 46619 takes place after 4 h. The survival rate indicates what percent of the animals used survive the injection of the thromboxane mimetic.

[3] = system: U46619-induced bronchospasm of the guinea pig; experiment: Inhibition of the U 46619-induced bronchospasm of the anaesthetised guinea pig; format: in vivo; conditions: Cavia porcellus, iv, 10 min, test substance i.v., 10 μg/kg U 46619 i.v., AUC over 10 min, read-out: ID50 of U46619-induced bronchospasm of the guinea pig
Procedure: 3. Inhibition of the U 46619-induced bronchospasm of the anaesthetised guinea pig
Guinea pigs are anaesthetised with narcoren and provided with a jugular vein catheter and a tracheal canula. The animals are mechanically respirated with atmospheric air with 1 ml/100 g body weight. The tracheal canula is connected via a three-way stopcock with a Stathem pressure element which takes up the pressure resulting by the contraction of the smooth musculature in the trachea and passes on to a recorder via a measuring bridge. After achievement of a constant basal tonus, the animals receive 10 μg/kg U 46619 i.v. administered via the jugular vein catheter. The dose induces a rapidly increasing bronchospasm which, after about 10 minutes, again subsides and is very readily reproducable. After 15 minutes follows a second administration of 10 μg/kg U 46619, in the course of which, after 5 minutes, the test substance is given i.v. in various doses. After a further 15 minutes, the same dose of U 46619 is again injected. The areas under the curve over 10 min of the administration 1 and 3 are determined planimetrically on a Kontron-Videoplan unit and the bronchospasm after administration 3 calculated in percentage of the bronchospasm after administration 1. The ID50 of the test substance can be determined from the quotients.

Structure (SMILES)	IC50 [1] [nM]	responders at 1 mg/kg [2] [%]	ED50 [3] [mg/kg]
O=C(COc1cccc(CCNS(=O)(=O)c2ccc(Cl)cc2)c1)N1CCCCC1 [Ex. 1 d, 3-[2-(4-chlorophenylsulphonylamino)-ethyl]-phenoxyacetylpiperidide]	3400	100	0.5
O=C(COc1cccc(CCNS(=O)(=O)c2ccc(Cl)cc2)c1)NCCO [Ex. 1 f, 3-[2-(4-chlorophenylsulphonylamino)-ethyl]-phenoxyacetic acid (2-hydroxyethylamide)]	1600	100	0.02
O=C(COc1cccc(CCNS(=O)(=O)c2ccc(Cl)cc2)c1)N(CCO)CCO [Ex. 1 g, 3-[2-(4-chlorophenylsulphonylamino)-ethyl]-phenoxyacetic acid 2-[bis-(2-hydroxyethyl)-amide]]	1600	100	0.04
O=C(COc1ccc(CCNS(=O)(=O)c2ccc(Cl)cc2)cc1)Nc1cccnc1 [Ex. 1 r, 4-[2-(4-chlorophenylsulphonylamino)-ethyl]-phenoxyacetic acid (3-pyridyl)-amide]	1000	90	0.02
CCNC(=O)COc1cccc(CCNS(=O)(=O)c2ccc(Cl)cc2)c1 [Ex. 2 a, 3-[2-(4-chlorophenylsulphonylamino)-ethyl]-phenoxyacetic acid ethylamide]	1800	100	0.01
NCCCc1ccc(CCNS(=O)(=O)c2ccc(Cl)cc2)cc1 [Ex. 4 m, 1-[4-[2-(4-chlorophenylsulphonylamino)-ethyl]-phenyl]-3-aminopropane]	3000	100	0.05
NCCCCc1ccc(CCNS(=O)(=O)c2ccc(Cl)cc2)cc1 [Ex. 4 s, 1-[4-[2-(4-chlorophenylsulphonylamino)-ethyl]-phenyl]-4-aminobutane]	2600	90	0.1
NCCOc1cccc(CCNS(=O)(=O)c2ccc(Cl)cc2)c1 [Ex. 4, 1-[3-[2-(4-Chlorophenylsulphonylamino)-ethyl]-phenoxy]-2-aminoethane]	340	100	0.01
NCCc1ccc(CCNS(=O)(=O)c2ccc(Cl)cc2)cc1 [Ex. 5, 1-[4-[2-(4-Chlorophenylsulphonylamino)-ethyl]-phenyl]-2-aminoethane]	100	100	0.05
